Results on four molecules are retold here after US4692443A, “3-bicyclicpyridinium-methyl cephalosporins” (Eli Lilly and Company, priority 1984, dated 1987).

In one data set the test system is Strep. D 9960. As to the kind of experiment: standard in vitro agar dilution assay (MIC). The format is cell-based. Conditions: Strep. D strain 9960.
For another data set, the system named is Staph. epi EPI1. As to the kind of experiment: standard in vitro agar dilution assay (MIC). Type of data set: cell-based. Conditions: Staph. epi strain EPI1.
Another data set relates to Staph. epi 222. As to the kind of experiment: standard in vitro agar dilution assay (MIC). The format is cell-based. Conditions: Staph. epi strain 222.
Another data set has as its system Klebsiella X68. As to the kind of experiment: standard in vitro agar dilution assay (MIC). The format is cell-based.
A short description of a further data set: Titration (pKa). The format is physicochemical. The following applies: 66% dimethylformamide in water v/v. From the text: Titration (66% dimethylformamide in water v/v) pKa at 4.0, 7.4, 10.7.
Another data set deals with Staph. aureus S13E. As to the kind of experiment: microbe, parasite or virus in culture. Type of data set: cell-based. Conditions: Staphylococcus aureus, read-out: Agar Dilution MIC.
The next data set deals with Pseudomonas X528. As to the kind of experiment: standard in vitro agar dilution assay (MIC). Type of data set: cell-based. Conditions: Pseudomonas strain X528. From the text:
The antibacterial activity of several representative compounds of the invention has been evaluated in standard in vitro agar dilution assays. The following Table presents typical minimum inhibitory concentrations (MIC's) in μg /ml for exemplary compounds when evaluated against typical Gram + and Gram - microorganism.

A further data set relates to Strep. A C203. Nature of the data set: standard in vitro agar dilution assay (MIC). Type of data set: cell-based. Conditions: Strep. A strain C203.
A further data set deals with Pseudomonas X239. Nature of the data set: standard in vitro agar dilution assay (MIC). The format is cell-based. The following applies: Pseudomonas strain X239.
The next data set relates to Staph. aureus V41. As to the kind of experiment: standard in vitro agar dilution assay (MIC). Conditions: Staphylococcus aureus; Staph. aureus strain V41; read-out: Agar Dilution MIC. Type of data set: cell-based.
For a further data set, the system named is H. influ. 76. Nature of the data set: standard in vitro agar dilution assay (MIC). Conditions: read-out: Agar Dilution MIC. Type of data set: cell-based.
A further data set relates to Enterobacter cloacae EB5. As to the kind of experiment: standard in vitro agar dilution assay (MIC). Type of data set: cell-based.
Data set [1] concerns Enterobacter aerogenes C32. Nature of the data set: standard in vitro agar dilution assay (MIC). The format is cell-based. The following applies: Klebsiella aerogenes.
Another data set concerns Strep. PN PARK. As to the kind of experiment: standard in vitro agar dilution assay (MIC). The following applies: Strep. PN strain PARK. The format is cell-based.
Another data set relates to Staph. aureus X1.1. As to the kind of experiment: standard in vitro agar dilution assay (MIC). Type of data set: cell-based. The following applies: Staphylococcus aureus; Staph. aureus strain X1.1; read-out: Agar Dilution MIC.
For a further data set, the system named is Staph. aureus X400. Nature of the data set: standard in vitro agar dilution assay (MIC). Type of data set: cell-based. Conditions: Staphylococcus aureus; Staph. aureus strain X400.
The test system of a further data set is E. coli N10. Nature of the data set: standard in vitro agar dilution assay (MIC). Type of data set: cell-based. Conditions: Escherichia coli, N10, read-out: Agar Dilution MIC.
The subject of a further data set is H. influ. C.L. As to the kind of experiment: standard in vitro agar dilution assay (MIC). Type of data set: cell-based. Conditions: read-out: Agar Dilution MIC.
The test system of the next data set is Serratia X99. As to the kind of experiment: standard in vitro agar dilution assay (MIC). The format is cell-based.
The test system of another data set is Klebsiella KAE. Nature of the data set: standard in vitro agar dilution assay (MIC). The format is cell-based. Conditions: Klebsiella strain KAE; read-out: Agar Dilution MIC.
A further data set concerns Strep. D X66. As to the kind of experiment: standard in vitro agar dilution assay (MIC). Type of data set: cell-based. The following applies: Strep. D strain X66.
The test system of another data set is Salmonella X514. As to the kind of experiment: standard in vitro agar dilution assay (MIC). The format is cell-based. Conditions: Salmonella strain X514; read-out: Agar Dilution MIC.
The test system of a further data set is Klebsiella X26. As to the kind of experiment: standard in vitro agar dilution assay (MIC). Type of data set: cell-based. Conditions: Klebsiella strain X26; read-out: Agar Dilution MIC.
Another data set relates to E. coli TEM. Nature of the data set: standard in vitro agar dilution assay (MIC). Type of data set: cell-based. The following applies: Escherichia coli; E. coli strain TEM; read-out: Agar Dilution MIC.
[2] abbreviates: Enterobacter cloacae, EB5, read-out: Agar Dilution MIC.
Setting [3] is: Serratia, X99, read-out: Agar Dilution MIC.

In brackets after ≈: the same amount, converted by molar mass. Like-named read-outs stand apart in the source and are kept apart here.

As to `CO/N=C(\C(=O)N[C@@H]1C(=O)N2C(C(=O)[O-])=C(C[n+]3cccc4nc(N)sc43)CS[C@H]12)c1csc(N)n1` [Example 15, syn-7-[2-(2-aminothiazol-4-yl)-2-methoxyiminoacetamido]-3-(2-aminothiazolo[5,4-b]pyridinium-4-ylmethyl)-3-cephem-4-carboxylate], the MIC is 8 µg/mL (≈ 14.6 µM) with Strep. D 9960; 2 µg/mL (≈ 3.66 µM) against Staph. epi EPI1; 16 µg/mL (≈ 29.3 µM) in the data set with Staph. epi 222; 4 µg/mL (≈ 7.32 µM) in the data set on Klebsiella X68 (Klebsiella strain X68, read-out: Agar Dilution MIC); 4 µg/mL (≈ 7.32 µM) with Staph. aureus S13E; 1 µg/mL (≈ 1.83 µM) in the data set with Pseudomonas X528. The MIC with Strep. A C203 came to 0.015 µg/mL (≈ 0.0274 µM); in the data set on Pseudomonas X239, 2 µg/mL (≈ 3.66 µM); with Staph. aureus V41 it was 2 µg/mL (≈ 3.66 µM). Also, the “pKa (second)” value in “Titration (pKa)” is 7.4. In “Titration (pKa)”, the “pKa (third)” value worked out at 10.7. Moreover, in the data set “Titration (pKa)” (read-out: pKa (first)), the pKa was 4.
For `CO/N=C(\C(=O)NC1C(=O)N2C(C(=O)[O-])=C(C[n+]3ccc4nc(C(C)(C)C)sc4c3)CSC12)c1csc(N)n1` (stereo not drawn) [Example 17, syn-7-[2-(2-aminothiazol-4-yl)-2-methoxyiminoacetamido]-3-(2-tert.-butylthiazolo[5,4-c]pyridinium-5-ylmethyl)-3-cephem-4-carboxylate], the MIC in the data set with Strep. D 9960 is 4 µg/mL (≈ 6.81 µM); against Staph. epi EPI1, 4 µg/mL (≈ 6.81 µM); against Staph. epi 222 it was 1 µg/mL (≈ 1.7 µM); with H. influ. 76, 0.125 µg/mL (≈ 0.213 µM); in the data set with Klebsiella X68 (Klebsiella, X68, read-out: Agar Dilution MIC), 0.5 µg/mL (≈ 0.851 µM); with Enterobacter cloacae EB5 (Enterobacter cloacae strain EB5, read-out: Agar Dilution MIC), 1 µg/mL (≈ 1.7 µM). Further, the MIC in data set [1] (C32, read-out: Agar Dilution MIC) is 0.5 µg/mL (≈ 0.851 µM); against Strep. PN PARK it was 0.015 µg/mL (≈ 0.0255 µM); with Staph. aureus X1.1, 1 µg/mL (≈ 1.7 µM); with Staph. aureus X400 it was 32 µg/mL (≈ 54.4 µM); in the data set with E. coli N10 it was 0.5 µg/mL (≈ 0.851 µM); in the data set with H. influ. C.L., 0.25 µg/mL (≈ 0.425 µM). Also, the MIC with Serratia X99 (Serratia strain X99, read-out: Agar Dilution MIC) is 1 µg/mL (≈ 1.7 µM); with Staph. aureus S13E, 8 µg/mL (≈ 13.6 µM); in the data set on Klebsiella KAE, 4 µg/mL (≈ 6.81 µM); against Strep. A C203 it was 0.015 µg/mL (≈ 0.0255 µM); with Strep. D X66, above 128 µg/mL; in the data set on Salmonella X514, 0.5 µg/mL (≈ 0.851 µM). Also, the MIC with Staph. aureus V41 is 4 µg/mL (≈ 6.81 µM).
On to `CO/N=C(\C(=O)NC1C(=O)N2C(C(=O)[O-])=C(C[n+]3ccc4nc(C)sc4c3)CSC12)c1csc(N)n1` (stereo not drawn) [Example 16, syn-7-[2-(2-aminothiazol-4-yl)-2-methoxyiminoacetamido]-3-(2-methylthiazolo[5,4-c]pyridinium-5-ylmethyl)-3-cephem-4-carboxylate], for which the MIC against Strep. D 9960 came out at 8 µg/mL (≈ 14.7 µM); in the data set with Staph. epi EPI1, 2 µg/mL (≈ 3.67 µM); in the data set with Staph. epi 222, 1 µg/mL (≈ 1.83 µM); with H. influ. 76 (H. influ. strain 76) it was 0.015 µg/mL (≈ 0.0275 µM); in the data set with Enterobacter cloacae EB5 (setting [2]) it was 0.125 µg/mL (≈ 0.229 µM); in the data set with Staph. aureus X1.1, 1 µg/mL (≈ 1.83 µM). The MIC with Staph. aureus X400 is 8 µg/mL (≈ 14.7 µM); with Serratia X99 (setting [3]), 0.125 µg/mL (≈ 0.229 µM); with Staph. aureus S13E, 4 µg/mL (≈ 7.33 µM); in the data set with Pseudomonas X528, 8 µg/mL (≈ 14.7 µM); with Klebsiella KAE it was 1 µg/mL (≈ 1.83 µM); in the data set with Strep. A C203, 0.015 µg/mL (≈ 0.0275 µM). The MIC was 4 µg/mL (≈ 7.33 µM) against Pseudomonas X239, above 128 µg/mL in the data set with Strep. D X66, 0.03 µg/mL (≈ 0.055 µM) with Salmonella X514 and 4 µg/mL (≈ 7.33 µM) with Staph. aureus V41.
With `CO/N=C(\C(=O)NC1C(=O)N2C(C(=O)[O-])=C(C[n+]3cccc4oc(N)nc43)CSC12)c1csc(N)n1` (stereo not drawn) [Example 10, syn-7-[2-(2-aminothiazol-4-yl)-2-methoxyiminoacetamido]-3-(2-aminooxazolo[4,5-b]pyridinium-4-ylmethyl)-3-cephem-4-carboxylate], the MIC against Strep. D 9960 amounted to 16 µg/mL (≈ 30.2 µM); in the data set with Staph. epi EPI1 it was 2 µg/mL (≈ 3.77 µM); in the data set with Klebsiella X26 it was 0.03 µg/mL (≈ 0.0565 µM); against Staph. epi 222 it was 1 µg/mL (≈ 1.88 µM); in the data set with H. influ. 76, 0.125 µg/mL (≈ 0.236 µM); in the data set on Enterobacter cloacae EB5 (setting [2]), 0.25 µg/mL (≈ 0.471 µM). In addition, the MIC stood at 0.125 µg/mL (≈ 0.236 µM) in data set [1] (Enterobacter aerogenes strain C32, read-out: Agar Dilution MIC); 0.015 µg/mL (≈ 0.0283 µM) with Strep. PN PARK; 0.03 µg/mL (≈ 0.0565 µM) in the data set on E. coli TEM; 32 µg/mL (≈ 60.3 µM) against Staph. aureus X400; 0.125 µg/mL (≈ 0.236 µM) in the data set with E. coli N10; 0.125 µg/mL (≈ 0.236 µM) in the data set with Serratia X99 (setting [3]). Besides, the MIC is 4 µg/mL (≈ 7.54 µM) in the data set on Staph. aureus S13E; 4 µg/mL (≈ 7.54 µM) against Pseudomonas X528; 4 µg/mL (≈ 7.54 µM) in the data set on Klebsiella KAE; 0.015 µg/mL (≈ 0.0283 µM) against Strep. A C203; 2 µg/mL (≈ 3.77 µM) in the data set with Pseudomonas X239; above 128 µg/mL in the data set on Strep. D X66. Further, the MIC in the data set on Staph. aureus V41 is 4 µg/mL (≈ 7.54 µM).
